For one series, the system named is cow hoof samples. The series is described as follows: Three-point bend test (flexural strength) of cow hoof samples immersed 24 hours in test solution. The conditions noted are these: for FS (flexural strength): 24 h immersion; for % Increase (flexural strength): only samples thinner than 1.8 mm. As for the experimental part:
1. […] Pack samples in vacuum bag. 2. […] 3. […] Pack samples in vacuum bag. 4. Three-Point Bend Test for Untreated and Treated Cow Hoof Samples • Perform using a Texture Analyzer TAXT Plus from Texture Technologies. • Three point bend test is conducted until sample fracture. • Flexural strength is calculated based on force at break for each sample. Results A 3-point bend test set-up was used to measure the break force of treated and untreated cow hoof slices with thickness ranging from 0.88 mm to 2.75 mm. The flexural strength was calculated for each sample, based on sample thickness and width. For each group, the average flexural strength and the standard deviation were calculated. The p-value for the effect significance was calculated for each treated group versus the corresponding baseline value using ANOVA. Outliers were eliminated using the modified Thompson Tau method. Baseline values were determined for groups of untreated samples. Because the hypothesis is that the crosslinker reacts with thiol groups, the effect of dithiothreitol (DTT), a disulfide reducing agent, was tested as well.

Series [1] is described as follows: Behaviour of the test solution at the highest concentration prepared. In kind it is physicochemical. The conditions noted are these: 3.5% (w/w) BMH in dimethyl sulfoxide.

Six compounds from patent US11628148B2, “Nail hardening composition and method of use” (WELLA OPERATIONS US, LLC, priority 2017, dated 2023) can be followed below.

In the case of `O[C@H](CS)[C@H](O)CS` (racemic) [DTT, dithiothreitol], in the series on cow hoof samples (disulfide reducing agent, results not shown), the “Effect on flexural strength (in words)” value is “no significant effect”.

Take `O=C1C=CC(=O)N1CCCCCCN1C(=O)C=CC1=O` [Bismaleimidohexane, bismaleimidohexane]: the figures for the “Observation on the solution” value in series [1] and in series [1] (listed as BMH) were “Gelification” and “gelification”, respectively. For the same compound, the results for the “% increase (flexural strength vs baseline)” value in the series with cow hoof samples (1% BMH in dimethyl sulfoxide) and with cow hoof samples (3% BMH in dimethyl sulfoxide) were 9.7% and 8.3%, respectively. Further, the entries for the “FS (flexural strength)” value in the series with cow hoof samples (1% by weight BMH in dimethyl sulfoxide) and with cow hoof samples (3% by weight BMH in dimethyl sulfoxide) were 158 N/mm2 and 156 N/mm2, respectively. Moreover, the “Effect on flexural strength (in words)” value in the series on cow hoof samples (BMH at 1% and 3%) is “non-significant increase”.

On to `C=O` [Formaldehyde, formaldehyde], for which the “FS (flexural strength)” value with cow hoof samples (1% by weight formaldehyde in ethanol, all samples) turned out to be 141 N/mm2; in the series on cow hoof samples (3% by weight formaldehyde in ethanol, all samples) it was 132 N/mm2; with cow hoof samples (5% by weight formaldehyde in ethanol, all samples), 134 N/mm2. Moreover, the “% increase (flexural strength vs baseline)” value with cow hoof samples (1% formaldehyde in ethanol, all samples) is 20.5%; in the series on cow hoof samples (3% formaldehyde in ethanol, all samples) it was 12.8%; in the series on cow hoof samples (5% formaldehyde in ethanol, all samples), 14.5%. Also, the “% Increase (flexural strength)” value with cow hoof samples (1% formaldehyde) was 22.2%; in the series on cow hoof samples (3% formaldehyde) it was 15.4%; with cow hoof samples (5% formaldehyde), 20.5%.

Turning to `NCCCCCCN` [Hexamethylene diamine, hexamethylene diamine], the “FS (flexural strength)” value in the series with cow hoof samples (1% by weight hexamethylene diamine alone in ethanol (equal. to 3% H + M)) was found to be 132 N/mm2; with cow hoof samples (1.7% by weight hexamethylene diamine alone in ethanol (equal. to 5% H + M)), 149 N/mm2; with cow hoof samples (2.3% by weight hexamethylene diamine alone in ethanol (equal. to 7% H + M)), 122 N/mm2. In addition, the results for the “% increase (flexural strength vs baseline)” value in the series on cow hoof samples (1% hexamethylene diamine alone in ethanol (equal. to 3% H + M)), in the series on cow hoof samples (1.7% hexamethylene diamine alone in ethanol (equal. to 5% H + M)) and in the series with cow hoof samples (2.3% hexamethylene diamine alone in ethanol (equal. to 7% H + M)) were 3.9%, 17.3% and −3.9%, respectively. In the series with cow hoof samples (HMD taken separately at 1.7%), the “Effect on flexural strength (in words)” value is listed as “borderline significant strengthening effect”.

Consider `O=C(O)/C=C\C(=O)O` [Maleic Acid, maleic acid], for which the “FS (flexural strength)” value in the series with cow hoof samples (3.3% by weight maleic acid alone in ethanol (equ. to 5% H + M)) was 131 N/mm2. Moreover, in the series with cow hoof samples (3.3% maleic acid alone in ethanol (equ. to 5% H + M)), the “% increase (flexural strength vs baseline)” value was determined as 3.1%. Besides, in the series with cow hoof samples (MA taken separately), the “Effect on flexural strength (in words)” value was “does not seem to have any significant effect”.

On to “Hexamethylene diamine/Maleic acid [Hexamethylene diamine + Maleic acid]”, for which the “% increase (flexural strength vs baseline)” value with cow hoof samples (1% HMD + MA in ethanol, all samples) is 13.4%; with cow hoof samples (3% HMD + MA in ethanol, all samples), 17.3%; in the series on cow hoof samples (5% HMD + MA in ethanol, all samples), 17.3%; in the series with cow hoof samples (7% HMD + MA in ethanol, all samples), 3.9%. In addition, the results for the “% Increase (flexural strength)” value in the series with cow hoof samples (1% HMD + MA), with cow hoof samples (3% HMD + MA) and in the series on cow hoof samples (5% HMD + MA) were 20.2%, 24.2% and 28.2%, respectively. Moreover, the “FS (flexural strength)” value is 144 N/mm2 in the series with cow hoof samples (1% by weight HMD + MA (1:2) in ethanol, all samples); 149 N/mm2 in the series on cow hoof samples (3% by weight HMD + MA (1:2) in ethanol, all samples); 149 N/mm2 in the series on cow hoof samples (5% by weight HMD + MA (1:2) in ethanol, all samples); 132 N/mm2 in the series with cow hoof samples (7% by weight HMD + MA (1:2) in ethanol, all samples). Further, the “Effect on flexural strength (in words)” value in the series with cow hoof samples (HMD + MA (1:2 ratio) at 3% and 5% (w/w)) is “significant increase”.
